Read-outs that look alike come from different tables or passages of the source.
What was measured:
in vivo = conditions: mouse, mice, read-out: Percentage of mortality
Method: The toxicity was determined in mice for various ways of administraion.

rats [1] = assay: antiallergic activity, cutaneous passive anaphylaxis test; type: in vivo
Method: The antiallergic activity was determined in rats in the cutaneous passive anaphylaxis test. The animals sensitized by an intradermic injection of IgE immediately received, after administration of the product to be tested, an intravenous injection of ovalbumin and Evans blue. The products of Examples 3 and 4 caused, at 10 mg/kg, 53 and 60% respectively inhibition of the Evans blue spot.

[2] = tested on: right auricle of a guinea pig beating spontaneously; assay: antihistaminic activity antiH2 in vitro, histamine-induced chronotropic effect; type: cell-based; conditions: for intrinsic chronotropic effect / inhibition at 100 µg/mL: 100 microg/ml
Method: Antihistaminic activity antiH2 was determined in vitro on the right auricle of a guinea pig beating spontaneously.

[3] = tested on: spontaneously hypertensive rat; assay: spontaneously hypertensive rat, systolic pressure; type: in vivo; conditions: orally 100 mg/kg
Method: In the model of the spontaneously hypertensive rat, the product of Example 13, administered orally in a dose of 100 mg/kg, caused a drop in systolic pressure of 14 and 15% respectively after two and four hours. The product of Example 14, administered in a dose of 100 mg/kg under the same conditions, caused a reduction of 21% of the systolic pressure after six hours.

rats [4] = assay: diuretic activity, sodium excretion; type: in vivo; conditions: 20 mg/kg per os
Method: The diuretic activity was determined in rats subjected to a hydric regimen and evaluated by the ratio of sodium excreted in the treated animals to the sodium excreted in control animals. The products of Examples 3 and 7 multiplied the sodium excretion by 4.2 and 4.9 respectively at a dose of 20 mg/kg per os.

guinea pig ileum [5] = assay: antihistaminic activity antiH1 in vitro, contractions induced by histamine; type: cell-based; conditions: Cavia porcellus
Method: The antihistaminic activity antiH1 was determined in vitro on guinea pig ileum.

ulcerigenic effect = type: in vivo; conditions: 200 mg/kg per os
rats [6] = assay: carrageenan edema test; type: in vivo; conditions: 100 mg/kg per os, after 4 hours
Excerpt: The antiinflammatory activity was brought out in the carrageenan edema test in rats.

guinea pig ileum [7] = assay: contractions induced by serotinin in vitro; type: cell-based; conditions: Cavia porcellus; 25 microg/ml
rats [8] = assay: stress ulcer test; type: in vivo; conditions: 25 mg/kg per os
Excerpt: The antiulcerigenic activity was shown in the stress ulcer test.

mice = assay: hypocholesterolemic activity, regimen rich in cholesterol and cholic acid; type: in vivo; conditions: 400 mg/kg per os
Method: The hypocholesterolemic activity was determined in mice subjected to a regimen rich in cholesterol and cholic acid for 7 days. After administration per os of the production of Example 6 in a dose of 400 mg/kg, a 21% reduction of cholesterolemia was noted on the 6th and 7th days. This drop in cholesterolemia was accompanied by a 20% reduction of the […] fraction, the HDL/cholesterol ratio being equal to 1.01.

[9] = tested on: right auricle of a guinea pig stimulated electrically; assay: positive inotropic activity in vitro; type: cell-based; conditions: Cavia porcellus; 100 microg/ml; read-out: increase of the auricle contractile force
Method: The positive inotropic activity was determined in vitro on the right auricle of a guinea pig stimulated electrically.

[10] = ip, intraperitoneally 200 mg/kg
[11] = ip, intraperitoneally 100 mg/kg
[12] = Cavia porcellus, 5 microg/ml of histamine

With `CN1CCN(CC2CN=C(N)O2)CC1` (stereo not shown) [Example 10, 2-amino-(4-methylpiperazinyl)-5-methyl-2-oxazoline] as the molecule, how does the mortality (in vivo; [10]) read?
Its mortality is 0%.

What about the mortality (in vivo; po, orally 300 mg/kg) of the same molecule?
Its mortality is 0%.

Which “inhibition of the Evans blue spot” value (rats [1]; 10 mg/kg) does the source give for `NC1=NCC(CN2CCCCC2)O1` (stereo not shown) [Example 4, 2-amino-5-piperidinomethyl-2-oxazoline] here?
The value was 60%.

What about the mortality (in vivo; [11]) of the same molecule?
The mortality was 0%.

And the mortality (in vivo; [10])?
Its mortality is 100%.

What about the mortality (in vivo; po, orally 200 mg/kg) of the same molecule?
Its mortality is 0%.

What about the mortality (in vivo; po, orally 300 mg/kg) of the same molecule?
The mortality was 33%.

Which results are given for `NC1=NCC(CN2CCC(Cc3ccccc3)CC2)O1` (stereo not shown) [Example 12]?
mortality (in vivo; [11]): 0%; mortality (in vivo; [10]): 100%; mortality (in vivo; po, orally 100 mg/kg (footnote 1)): 0%; mortality (in vivo; po, orally 300 mg/kg): 100%

Which inhibition at 50 µg/mL ([2]; Cavia porcellus, 50 microg/ml, 5 microg/ml of histamine) does the source give for `C=CCN1CCN(CC2CN=C(N)O2)CC1` (stereo not shown) [Example 14] here?
Its inhibition at 50 µg/mL is greater than 50%.

What about the mortality (in vivo; [10]) of the same molecule?
Its mortality is 0%.

What about the mortality (in vivo; po, orally 300 mg/kg) of the same molecule?
The mortality was 0%.

And the “reduction of the systolic pressure” value ([3]; after six hours)?
Its value is 21%.

Which intrinsic chronotropic effect [2] does the source give for `CCCCN(C)CC1CN=C(N)O1` (stereo not shown) [Example 2, 2-amino-5-(N-butyl-N-methylaminomethyl)-2-oxazoline] here?
Its intrinsic chronotropic effect is “without exhibiting intrinsic chronotropic effect”.

What about the inhibition at 100 µg/mL [2, 12] of the same molecule?
Its inhibition at 100 µg/mL is greater than 50%.

What about the mortality (in vivo; [11]) of the same molecule?
Its mortality is 0%.

What about the mortality (in vivo; [10]) of the same molecule?
The mortality was 100%.

And the mortality (in vivo; po, orally 300 mg/kg)?
Its mortality is 0%.

Which mortality (in vivo; po, orally 300 mg/kg) does the source give for `NC1=NCC(CN2CCOCC2)O1` (stereo not shown) [Example 7, 2-amino-5-morpholinomethyl-2-oxazoline] here?
Its mortality is 100%.

And the “sodium excretion multiplied by (ratio treated to control animals)” value (rats [4])?
Its value is 4.9.

Which inhibition at 25 µg/mL (guinea pig ileum [5]; 25 microg/ml) does the source give for `NC1=NCC(CN2CCN(c3ccccc3)CC2)O1` (stereo not shown) [Example 11] here?
The inhibition at 25 µg/mL was greater than 80%.

And the ulcerigenic effect (ulcerigenic effect)?
The ulcerigenic effect was “very slightly ulcerigenic”.

And the “inhibition of carrageenan edema” value (rats [6])?
The value was 35%.

What about the inhibition at 25 µg/mL (guinea pig ileum [7]) of the same molecule?
The inhibition at 25 µg/mL was 80%.

And the “inhibition of the stress ulcer” value (rats [8])?
Its value is 88%.

With `NC1=NCC(CN2CCN(Cc3ccccc3)CC2)O1` (stereo not shown) [Example 13] as the molecule, how does the inhibition at 100 µg/mL (guinea pig ileum [5]; 100 microg/ml) read?
The inhibition at 100 µg/mL was greater than 80%.

And the inhibition at 100 µg/mL [2, 12]?
Its inhibition at 100 µg/mL is greater than 50%.

What about the mortality (in vivo; [11]) of the same molecule?
The mortality was 0%.

And the mortality (in vivo; [10])?
Its mortality is 100%.

And the mortality (in vivo; po, orally 300 mg/kg)?
Its mortality is 0%.

And the “drop in systolic pressure” value ([3]; after four hours)?
The value was 15%.

What about the “drop in systolic pressure” value ([3]; after two hours) of the same molecule?
The value was 14%.

Which “inhibition of the Evans blue spot” value (rats [1]; 10 mg/kg) does the source give for `NC1=NCC(CN2CCCC2)O1` (stereo not shown) [Example 3, 2-amino-5-pyrrolidinomethyl-2-oxazoline] here?
Its value is 53%.

And the mortality (in vivo; [11])?
The mortality was 0%.

What about the mortality (in vivo; [10]) of the same molecule?
Its mortality is 100%.

What about the mortality (in vivo; po, orally 300 mg/kg) of the same molecule?
Its mortality is 0%.

What about the “sodium excretion multiplied by (ratio treated to control animals)” value (rats [4]) of the same molecule?
The value was 4.2.

Which results are given for `CCC1CCCCN1CC1CN=C(N)O1` (stereo not shown) [Example 6, 2-amino-5-(2-ethylpiperidinomethyl)-2-oxazoline]?
intrinsic chronotropic effect [2]: without exhibiting intrinsic chronotropic effect; inhibition at 100 µg/mL [2, 12]: > 50%; mortality (in vivo; [10]): 0%; mortality (in vivo; po, orally 300 mg/kg): 0%; HDL/cholesterol ratio (mice): 1.01; reduction of the HDL-VLDL fraction (mice): 20%; reduction of cholesterolemia (mice; 6th and 7th days): 21%

Which mortality (in vivo; [11]) does the source give for `CC1CCN(CC2CN=C(N)O2)CC1` (stereo not shown) [Example 5, 2-amino-5-(4-methylpiperidinomethyl)-2-oxazoline] here?
Its mortality is 0%.

What about the mortality (in vivo; [10]) of the same molecule?
The mortality was 100%.

And the mortality (in vivo; po, orally 300 mg/kg)?
Its mortality is 0%.

With `CCN(CC)CC1CN=C(N)O1` (stereo not shown) [Example 1, 2-amino-N,N-5-diethylaminomethyl-2-oxazoline] as the molecule, how does the “inhibition of the Evans blue spot” value (rats [1]; 100 mg/kg per os) read?
Its value is 60%.

And the intrinsic chronotropic effect [2]?
The intrinsic chronotropic effect was “without exhibiting intrinsic chronotropic effect”.

And the inhibition at 100 µg/mL [2, 12]?
The inhibition at 100 µg/mL was greater than 50%.

And the mortality (in vivo; [10])?
Its mortality is 0%.

And the mortality (in vivo; po, orally 300 mg/kg)?
Its mortality is 0%.

What about the activation at 100 µg/mL [9] of the same molecule?
The activation at 100 µg/mL was 100%.

— patent US4497812A, “2-Amino-5-aminomethyl-2-oxazolines, compositions and use” (Societe Cortial, S.A., priority 1982, dated 1985)
